In publication PMC8688847, “Implications of Membrane Binding by the Fe-S Cluster-Containing N-Terminal Domain in the Drosophila Mitochondrial Replicative DNA Helicase” (Frontiers in Genetics, 2021):

Tests used:
ΔN-helicase (P66) = target: T1, ΔN-helicase (P66) (Homo sapiens, UniProt Q96RR1); test: malachite green ATPase assay; type: biochemical; conditions: 8 mM Mg acetate, pH 7.5, room temperature
T1 construct: gene TWNK; variant lacking the N-terminus, termed P66 in Ziebarth et al. 2007
T1 sequence (Q96RR1 85-684 limits assumed): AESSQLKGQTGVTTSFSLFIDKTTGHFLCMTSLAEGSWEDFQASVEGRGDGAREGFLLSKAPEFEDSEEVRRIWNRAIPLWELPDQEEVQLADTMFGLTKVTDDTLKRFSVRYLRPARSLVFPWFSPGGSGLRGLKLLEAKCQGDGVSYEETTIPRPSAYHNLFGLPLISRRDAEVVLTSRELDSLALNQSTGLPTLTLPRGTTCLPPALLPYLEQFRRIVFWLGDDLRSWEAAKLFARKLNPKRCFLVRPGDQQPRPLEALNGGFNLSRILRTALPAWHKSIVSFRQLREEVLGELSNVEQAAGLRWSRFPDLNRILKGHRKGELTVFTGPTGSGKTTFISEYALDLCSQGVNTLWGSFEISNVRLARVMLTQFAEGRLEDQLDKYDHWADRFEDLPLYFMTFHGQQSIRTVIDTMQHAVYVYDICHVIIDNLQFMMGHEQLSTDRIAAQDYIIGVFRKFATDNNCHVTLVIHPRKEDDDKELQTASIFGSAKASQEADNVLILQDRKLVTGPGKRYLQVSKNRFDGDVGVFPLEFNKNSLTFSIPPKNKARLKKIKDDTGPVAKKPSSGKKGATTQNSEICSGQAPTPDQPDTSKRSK

[1] = target: T2, FL Hs mtDNA helicase (TWINKLE) (Homo sapiens, UniProt Q96RR1); test: malachite green ATPase assay; type: biochemical; conditions: 8 mM Mg acetate, pH 7.5, room temperature
T2 construct: gene TWNK; full-length, recombinant, Ni-NTA purified
T2 sequence (Q96RR1 32-684): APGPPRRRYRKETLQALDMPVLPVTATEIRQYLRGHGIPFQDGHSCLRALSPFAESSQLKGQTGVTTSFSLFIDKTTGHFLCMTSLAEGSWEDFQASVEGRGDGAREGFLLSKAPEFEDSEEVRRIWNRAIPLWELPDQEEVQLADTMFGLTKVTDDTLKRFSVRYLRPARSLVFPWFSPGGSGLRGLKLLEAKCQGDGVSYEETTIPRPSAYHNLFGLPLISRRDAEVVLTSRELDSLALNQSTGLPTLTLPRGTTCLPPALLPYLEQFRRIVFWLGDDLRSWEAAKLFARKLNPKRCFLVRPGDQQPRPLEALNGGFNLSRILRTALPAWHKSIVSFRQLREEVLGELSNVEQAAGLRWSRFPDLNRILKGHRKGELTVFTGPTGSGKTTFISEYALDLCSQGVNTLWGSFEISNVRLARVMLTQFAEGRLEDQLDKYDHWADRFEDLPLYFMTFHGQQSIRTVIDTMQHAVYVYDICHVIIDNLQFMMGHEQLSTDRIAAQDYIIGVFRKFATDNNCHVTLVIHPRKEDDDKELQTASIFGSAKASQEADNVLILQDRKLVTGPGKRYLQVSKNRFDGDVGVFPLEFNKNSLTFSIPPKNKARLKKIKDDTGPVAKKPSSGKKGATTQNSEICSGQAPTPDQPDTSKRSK

Compound: Nc1ncnc2c1ncn2[C@@H]1O[C@H](COP(=O)(O)OP(=O)(O)OP(=O)(O)O)[C@@H](O)[C@H]1O [ATP]
- malachite green ATPase assay (ΔN-helicase (P66)): the ATPase activity of ΔN-helicase, termed P66
- malachite green ATPase assay [1]: ATP hydrolysis of FL helicase was increased with added calf thymus DNA
